Results: patent US4206215A, “Antimicrobial bis-[4-(substituted-amino)-1-pyridinium]alkanes” (Sterling Drug Inc., priority 1977, dated 1980)
Like-named read-outs stand apart in the source and are kept apart here.

Assays:
K. pneum. 39645 = assay: In vitro antibacterial activity, MIC (modified Autotiter method); format: cell-based, Klebsiella pneumoniae; details: 18-20 hours at 37° C.; for MIC: Klebsiella pneumoniae, 20 h, read-out: MIC K. pneum. 39645
How it was run: (§1)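 Semisynthetic glucose medium at double strength, already inoculated, is added to cups holding compound diluted twofold in sterile water. The series starts from a 1,000 mcg./ml. solution and ends at final concentrations of 500 through 0.06 mcg./ml.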

E. coli AB1932-1 = assay: as above; format: cell-based, Escherichia coli; details: 18-20 hours at 37° C.; for MIC: Escherichia coli, AB19321, 20 h, read-out: MIC E. coli AB1932-1
How it was run: as §1

E. coli Vogel = assay: as above; format: cell-based, Escherichia coli; details: 18-20 hours at 37° C.; for MIC: Escherichia coli, 20 h, read-out: MIC E. coli Vogel
How it was run: as §1

E. coli 100/B22 = assay: as above; format: cell-based, Escherichia coli; details: 18-20 hours at 37° C.; for MIC: Escherichia coli, 100/B22, 20 h, read-out: MIC E. coli 100/B22
How it was run: as §1

C. albicans 10231 = assay: In vitro antifungal activity, MIC (modified Autotiter method); format: cell-based, Candida albicans; details: 18-20 hours at 37° C.; for MIC: Candida albicans, 10231, 20 h, read-out: MIC C. albicans 10231
How it was run: as §1

C. albicans Wisc. = assay: as above; format: cell-based, Candida albicans; details: 18-20 hours at 37° C.; for MIC: Candida albicans, 20 h, read-out: MIC C. albicans Wisc.
How it was run: as §1

P. mirab. MGH-1 = assay: In vitro antibacterial activity, MIC (modified Autotiter method); format: cell-based, Proteus mirabilis; details: 18-20 hours at 37° C.; for MIC: Proteus mirabilis, 20 h, read-out: MIC P. mirab. MGH-1
How it was run: as §1

S. Aureus Smith = assay: as above; format: cell-based, Staphylococcus aureus; details: 18-20 hours at 37° C.; for MIC: Staphylococcus aureus, 20 h, read-out: MIC S. Aureus Smith
How it was run: as §1

T. menta. 9129 = assay: In vitro antifungal activity, MIC (modified Autotiter method); format: cell-based, Trichophyton mentagrophytes; details: 18-20 hours at 37° C.; for MIC: Trichophyton mentagrophytes, 20 h, read-out: MIC T. menta. 9129
How it was run: as §1

Ps. aerug. MGH-2 = assay: In vitro antibacterial activity, MIC (modified Autotiter method); format: cell-based, Pseudomonas aeruginosa; details: 18-20 hours at 37° C.; for MIC: Pseudomonas aeruginosa, 20 h, read-out: MIC Ps. aerug. MGH-2
How it was run: as §1

S. Aureus ATCC 6538 = assay: Effect of serum on bacteriostatic activity (serial tube dilution test); format: cell-based, Staphyloccocus aureus; details: for Fold Increase in MIC S. Aureus ATCC 6538: 40% vs 0% horse serum; for MIC: Staphylococcus aureus, ATCC6538
Method: (§2) Antibacterial effectiveness in the presence of serum was determined for representative examples by the standard serial tube dilution test wherein paired comparisons of minimum inhibitory concentrations (MIC) were determined in the absence and in the presence of heat inactivated (30 min. at 56° C.) horse serum (40%) in the test medium. The results are expressed as the fold increase in MIC (mcg./ml.) versus Staphyloccocus aureus and Escherichia coli caused by the presence of serum and are presented in Table B hereinbelow.

[1] = test system: Herpes simplex type 2 virus; assay: Virucidal activity in vitro (plaque inhibition test); format: cell-based; details: 2 mg. of test compound on growth medium
Method: Virucidal activity of representative examples against Herpes simplex type 2 virus was determined in vitro employing a procedure similar to the plaque inhibition test for detection of specific inhibitors of DNA-containing viruses published by E. C. Herrmann, Jr., Proc. Soc. Exp. Biol. Med. 107, 142 (1961) wherein 2 mg. of the test compound was placed on the surface of the growth medium.

S. pyogen. C203 = assay: In vitro antibacterial activity, MIC (modified Autotiter method); format: cell-based, Streptococcus pyogenes; details: 18-20 hours at 37° C.; for MIC: Streptococcus pyogenes, 20 h, read-out: MIC S. pyogen. C203
How it was run: as §1

A. niger 16404 = assay: In vitro antifungal activity, MIC (modified Autotiter method); format: cell-based, Aspergillus niger; details: 18-20 hours at 37° C.; for MIC: Aspergillus niger, 16404, 20 h, read-out: MIC A. niger 16404
How it was run: as §1

E. Coli ATCC 8739 = assay: Effect of serum on bacteriostatic activity (serial tube dilution test); format: cell-based, Escherichia coli; details: for Fold Increase in MIC E. Coli ATCC 8739: 40% vs 0% horse serum; for MIC: Escherichia coli, ATCC8739
Method: as §2

[2] = 40% heat inactivated horse serum, read-out: MIC S. Aureus ATCC 6538 40% Serum
[3] = read-out: MIC S. Aureus ATCC 6538 0% Serum
[4] = 40% heat inactivated horse serum, read-out: MIC E. Coli ATCC 8739 40% Serum
[5] = read-out: MIC E. Coli ATCC 8739 0% Serum

| Compound | MIC (K. pneum. 39645) | MIC (E. coli AB1932-1) | MIC (E. coli Vogel) | MIC (E. coli 100/B22) | MIC (C. albicans 10231) | MIC (C. albicans Wisc.) | MIC (P. mirab. MGH-1) | MIC (S. Aureus Smith) | MIC (T. menta. 9129) | Fold Increase in MIC S. Aureus ATCC 6538 (S. Aureus ATCC 6538) | MIC (S. Aureus ATCC 6538; [2]) | MIC (S. Aureus ATCC 6538; [3]) | Virucidal activity against Herpes simplex type 2 virus [1] | MIC (A. niger 16404) | Fold Increase in MIC E. Coli ATCC 8739 (E. Coli ATCC 8739) | MIC (E. Coli ATCC 8739; [4]) | MIC (E. Coli ATCC 8739; [5]) | MIC (Ps. aerug. MGH-2) | MIC (S. pyogen. C203) | also measured |
| --- | --- | --- | --- | --- | --- | --- | --- | --- | --- | --- | --- | --- | --- | --- | --- | --- | --- | --- | --- | --- |
| CCCCCCCNc1cc[n+](CCCCCCCC[n+]2ccc(NCCCCCCC)cc2)cc1 [Example 22, 1,8-bis-[4-(heptylamino)-1-pyridinium]-octanedibromide] | 1.95 µg/mL | 0.98 µg/mL | 1.95 µg/mL | 0.98 µg/mL | 0.98 µg/mL | 1.95 µg/mL | 62.5 µg/mL | 0.39 µg/mL | 1.95 µg/mL | 16 fold | 3.9 µg/mL | 0.25 µg/mL | active | 15.6 µg/mL | 8 fold | 3.9 µg/mL | 0.5 µg/mL | – | – | MIC Ps. aerug. MGH-2 (Ps. aerug. MGH-2): 313 µg/mL; MIC S. pyogen. C203 (S. pyogen. C203): 0.49 µg/mL |
| CCCCCCCCNc1cc[n+](CCCCCC[n+]2ccc(NCCCCCCCC)cc2)cc1 [Example 13, 1,6-bis-[4-(octylamino)-1-pyridinium]hexane dibromide] | 3.9 µg/mL | 1 µg/mL | 1.95 µg/mL | 1.95 µg/mL | 1.95 µg/mL | 1.95 µg/mL | – | 0.5 µg/mL | 0.5 µg/mL | 128 fold | 31.2 µg/mL | 0.25 µg/mL | active | – | 32 fold | 31.2 µg/mL | 1 µg/mL | 31.3 µg/mL | 0.5 µg/mL | MIC P. mirab. MGH-1 (P. mirab. MGH-1): 31.3 µg/mL; MIC A. niger 16404 (A. niger 16404): 3.9 µg/mL |
| Clc1ccc(Nc2cc[n+](CCCCCCCCCC[n+]3ccc(Nc4ccc(Cl)cc4)cc3)cc2)cc1 [Example 79B, 1,10-bis-[4-(p-chlorophenylamino)-1-pyridinium]decane dimethanesulfonate] | 3.1 µg/mL | 0.8 µg/mL | 1.6 µg/mL | 1.6 µg/mL | 3.13 µg/mL | 6.25 µg/mL | > 125 µg/mL | 0.4 µg/mL | 6.25 µg/mL | 32 fold | 7.8 µg/mL | 0.25 µg/mL | inactive | 25 µg/mL | 32 fold | 15.6 µg/mL | 0.5 µg/mL | 62.5 µg/mL | 0.4 µg/mL | – |
| CCCCCCNc1cc[n+](CCCCCCCCCCCC[n+]2ccc(NCCCCCC)cc2)cc1 [Example 7, 1,12-bis-[4-(hexylamino)-1-pyridinium]dodecane dibromide] | – | – | – | – | – | – | – | – | – | 16 fold | 1.56 µg/mL | 0.1 µg/mL | active | – | 32 fold | 12.5 µg/mL | 0.39 µg/mL | – | – | MIC K. pneum. 39645 (K. pneum. 39645): 1.5 µg/mL; MIC E. coli AB1932-1 (E. coli AB1932-1): 0.37 µg/mL; MIC E. coli Vogel (E. coli Vogel): 0.37 µg/mL; MIC E. coli 100/B22 (E. coli 100/B22): 0.37 µg/mL; MIC C. albicans 10231 (C. albicans 10231): 0.74 µg/mL; MIC C. albicans Wisc. (C. albicans Wisc.): 0.74 µg/mL; MIC P. mirab. MGH-1 (P. mirab. MGH-1): 6.0 µg/mL; MIC S. Aureus Smith (S. Aureus Smith): 0.15 µg/mL; MIC T. menta. 9129 (T. menta. 9129): 0.37 µg/mL; MIC Ps. aerug. MGH-2 (Ps. aerug. MGH-2): 23.8 µg/mL; MIC S. pyogen. C203 (S. pyogen. C203): 1.0 µg/mL; MIC A. niger 16404 (A. niger 16404): 3.0 µg/mL |
| CCCCC(CC)CNc1cc[n+](CCCCCCCCC[n+]2ccc(NCC(CC)CCCC)cc2)cc1 (stereo not shown) [Example 57, 1,9-bis-[4-(2-ethylhexylamino)-1-pyridinium]nonane dibromide] | 7.8 µg/mL | 0.98 µg/mL | 0.98 µg/mL | 0.98 µg/mL | 3.9 µg/mL | 3.9 µg/mL | 125 µg/mL | 0.31 µg/mL | 0.98 µg/mL | – | – | – | active | 15.6 µg/mL | – | – | – | 125 µg/mL | 0.625 µg/mL | – |
| CCCCC(CC)CNc1cc[n+](CCCCCC[n+]2ccc(NCC(CC)CCCC)cc2)cc1 (stereo not shown) [Example 54, 1,6-bis-[4-(2-ethylhexylamino)-1-pyridinium]hexane dibromide] | 125 µg/mL | 1.95 µg/mL | 7.8 µg/mL | 3.9 µg/mL | 7.8 µg/mL | 7.8 µg/mL | > 125 µg/mL | 0.49 µg/mL | 1.95 µg/mL | – | – | – | active | 15.6 µg/mL | – | – | – | > 250 µg/mL | 0.625 µg/mL | – |
| CCCCCCNc1cc[n+](CCCCC[n+]2ccc(NCCCCCC)cc2)cc1 [Example 31, 1,5-bis-[4-(hexylamino)-1-pyridinium]pentane dibromide] | > 125 µg/mL | 31.3 µg/mL | 125 µg/mL | 62.5 µg/mL | 31.3 µg/mL | 62.5 µg/mL | > 250 µg/mL | 1.95 µg/mL | 31.3 µg/mL | – | – | – | active | 31.3 µg/mL | – | – | – | > 125 µg/mL | 0.98 µg/mL | – |
| CCCCCCNc1cc[n+](CCCCCCC[n+]2ccc(NCCCCCC)cc2)cc1 [Example 18, 1,7-bis-[4-(hexylamino)-1-pyridinium]heptane dibromide] | 15.6 µg/mL | 7.8 µg/mL | 15.6 µg/mL | 7.8 µg/mL | 6.25 µg/mL | 7.8 µg/mL | > 125 µg/mL | 0.39 µg/mL | 15.6 µg/mL | – | – | – | active | 15.6 µg/mL | – | – | – | > 125 µg/mL | 0.49 µg/mL | – |
| c1c[n+](CCCCCCCCC[n+]2ccc(NC3CCCCC3)cc2)ccc1NC1CCCCC1 [Example 39, 1,9-bis-[4-(cyclohexylamino)-1-pyridinium]nonane dibromide] | 125 µg/mL | 31.3 µg/mL | 31.3 µg/mL | 31.3 µg/mL | 15.6 µg/mL | 15.6 µg/mL | > 500 µg/mL | 0.98 µg/mL | 3.9 µg/mL | – | – | – | inactive | 7.8 µg/mL | – | – | – | 500 µg/mL | 3.9 µg/mL | – |
| CCCCCCNc1cc[n+](CCCCCCCCCC[n+]2ccc(NCCCCCC)cc2)cc1 [Example 33, 1,10-bis-[4-(hexylamino)-1-pyridinium]decane dibromide] | 3.9 µg/mL | 0.98 µg/mL | 1.95 µg/mL | 1.95 µg/mL | 1.95 µg/mL | 3.9 µg/mL | 31.3 µg/mL | 0.195 µg/mL | 1.95 µg/mL | 16 fold | 1.95 µg/mL | 0.125 µg/mL | active | 3.9 µg/mL | 16 fold | 3.9 µg/mL | 0.25 µg/mL | 31.3 µg/mL | 0.49 µg/mL | – |
